Test results published in ChEMBL document CHEMBL3862008, “7-Chloro-4-aminoquinoline γ-hydroxy-γ-lactam derived-tetramates as a new family of antimalarial compounds” (Bioorg Med Chem Lett, 2016).
pIC50: −log10 of the molar value.

Experiments:
Plasmodium falciparum [1] = assay: Antimalarial activity against chloroquine-sensitive Plasmodium falciparum 3D7 infected in red blood cells after 72 hrs by SYBR green 1 staining based fluorometric assay; type: functional, cell-based; details: 3D7, 72 h
Plasmodium falciparum [2] = assay: Antimalarial activity against chloroquine-resistant Plasmodium falciparum W2 infected in red blood cells after 72 hrs by SYBR green 1 staining based fluorometric assay; type: functional, cell-based; details: W2, 72 h
[3] = Resistance index, ratio of IC50 for chloroquine-resistant Plasmodium falciparum W2 infected in red blood cells to IC50 for chloroquine-sensitive Plasmodium falciparum 3D7 infected in red blood cells; type: functional
[4] = Stability of the compound in pH 7.4 solution up to 48 hrs; type: physicochemical; details: buffer, pH 7.4, 48 h
[5] = Cytotoxicity against HUVEC assessed as decrease in cell viability at 0.01 to 50 umol/l after 24 hrs by trypan blue dye based assay; type: toxicity; details: human

Compound | pIC50 (Plasmodium falciparum [1]) | pIC50 (Plasmodium falciparum [2]) | Ratio IC50 [3] | Stability [4] | Activity [5]
COC1=CC(=O)N(CCCNc2ccnc3cc(Cl)ccc23)C1(O)Cc1ccc(OC)c(OC)c1 (stereo not given) | 6.29 | 6.12 | 1.5 |  | 
COC1=CC(=O)N(CCN(C)CCNc2ccnc3cc(Cl)ccc23)C1(O)Cc1ccc(C(F)(F)F)cc1 (stereo not given) | 7.85 | 7.47 | 2.4 | Stable | Non-Toxic
CN(CCNc1ccnc2cc(Cl)ccc12)CCN1C(=O)C=C(OCc2ccccc2)C1(O)Cc1ccccc1 (stereo not given) | 7.27 | 7.19 | 1.2 | Stable | Non-Toxic
O=C1C=C(OCc2ccccc2)C(O)(Cc2ccc(F)cc2)N1CCCNc1ccnc2cc(Cl)ccc12 (stereo not given) | 7.38 | 7.24 | 1.4 | Stable | Non-Toxic
COC1=CC(=O)N(CCCNc2ccnc3cc(Cl)ccc23)C1(O)Cc1ccc(C(C)(C)C)cc1 (stereo not given) | 7.04 | 6.67 | 2.3 |  | 
COC1=CC(=O)N(CCN2CCN(CCNc3ccnc4cc(Cl)ccc34)CC2)C1(O)Cc1ccc(C(F)(F)F)cc1 (stereo not given) | 7.72 | 7.80 | 0.8 | Stable | Non-Toxic
COC1=CC(=O)N(CCCNc2ccnc3cc(Cl)ccc23)C1(O)Cc1ccc(F)cc1 (stereo not given) | 6.72 | 6.17 | 3.5 |  | 
O=C1C=C(OCc2ccccc2)C(O)(Cc2ccc(C(F)(F)F)cc2)N1CCCNc1ccnc2cc(Cl)ccc12 (stereo not given) | 7.44 | 7.44 | 1 | Stable | Non-Toxic
COC1=CC(=O)N(CCCNc2ccnc3cc(Cl)ccc23)C1(O)Cc1ccccc1 (stereo not given) | 6.52 | 6.08 | 2.8 |  | 
O=C1C=C(OCc2ccccc2)C(O)(Cc2ccccc2)N1CCCNc1ccnc2cc(Cl)ccc12 (stereo not given) | 6.84 | 6.72 | 1.3 |  | 
CN(CCNc1ccnc2cc(Cl)ccc12)CCN1C(=O)C=C(OCc2ccccc2)C1(O)Cc1ccc(C(F)(F)F)cc1 (stereo not given) | 7.40 | 7.38 | 1 | Stable | Non-Toxic
